“Also recorded” adds a separate entry of the source.
Experiments:
[1] = system: DENV-2
[2] = system: WNV
[3] = in vitro; conditions: Mesocricetus auratus (hamster)
[4] = system: DENV-2; test: microbe, parasite or virus in culture; conditions: Dengue virus, DENV2, BHK, read-out: DENV-2 EC50
[5] = system: WNV; test: microbe, parasite or virus in culture; conditions: West Nile virus, BHK, read-out: WNV EC50
[6] = system: YFV; type: cell-based, Yellow Fever Virus
[7] = system: RSV
[8] = in vitro; conditions: Cercopithecus aethiops (monkey), Vero76 CC50
[9] = system: YFV; test: microbe, parasite or virus in culture; conditions: Yellow fever virus, BHK, read-out: YFV EC50
[10] = system: RSV; test: microbe, parasite or virus in culture; conditions: human respiratory syncytial virus, Vero 76, read-out: RSV EC50
[11] = system: CVB-5; test: microbe, parasite or virus in culture; type: cell-based, Coxsackievirus B5; conditions: Enterovirus B, Vero 76, read-out: CVB-5 EC50
[12] = system: Sb-1; test: microbe, parasite or virus in culture; type: cell-based, Poliovirus type-1, Sabin strain; conditions: Enterovirus C, Vero 76, read-out: Sb-1 EC50
[13] = system: VV; test: microbe, parasite or virus in culture; type: cell-based; conditions: Orthopoxvirus vaccinia, Vero 76, read-out: VV EC50
[14] = system: HSV-1; test: microbe, parasite or virus in culture; type: cell-based, human herpesvirus 1; conditions: Human alphaherpesvirus 1, Vero 76, read-out: HSV-1 EC50
[15] = system: VSV; test: microbe, parasite or virus in culture; type: cell-based; conditions: Vesicular stomatitis virus, Vero 76, read-out: VSV EC50
[16] = system: YFV
[17] = in vitro; conditions: Bos taurus (cattle)
[18] = in vitro; conditions: human
[19] = system: HIV-1; test: microbe, parasite or virus in culture; conditions: Human immunodeficiency virus 1, MT4, read-out: HIV-1 EC50
[20] = system: BVDV
[21] = system: BVDV; test: microbe, parasite or virus in culture; conditions: Bovine viral diarrhea virus isolates and strains, MDBK, read-out: BVDV EC50
[22] = system: Reo-1; type: cell-based, reovirus type-1
[23] = system: BHK-21 cells

Row | SMILES | CC50 [3] [µM] | SI CC50/EC50 (RSV) [7] | CC50 [8] [µM] | EC50 [9] [µM] | EC50 [10] [µM] | EC50 [11] [µM] | EC50 [12] [µM] | EC50 [13] [µM] | EC50 [14] [µM] | EC50 [15] [µM] | melting point [°C] | SI CC50/EC50 (YFV) [16] | CC50 [17] [µM] | CC50 [18] [µM] | also measured
1 | Brc1ccc(NCc2cn(-c3ccccc3)nc2-c2ccc(Br)cc2)cc1 [1g] | > 100 | – | – | – | – | – | – | – | – | – | – | – | – | – | SI CC50/EC50 (DENV-2) [1]: >4.3; SI CC50/EC50 (WNV) [2]: >1.25; EC50 [4]: 23 ± 6 µM; EC50 [5]: 80 ± 8.5 µM
2 | Clc1ccc(NCc2cn(-c3ccccc3)nc2-c2ccc(Cl)cc2)cc1 [1i] | 73 ± 1 | – | – | – | – | – | – | – | – | – | – | – | – | – | SI CC50/EC50 (DENV-2) [1]: 5.0; SI CC50/EC50 (WNV) [2]: 1.3; EC50 [4]: 14.5 ± 3.5 µM; EC50 [5]: 57.5 ± 0.5 µM
3 | Cc1ccc(NCc2cn(-c3ccccc3)nc2-c2ccc(Cl)cc2)cc1 [1n] | > 100 | – | – | – | – | – | – | – | – | – | – | – | – | – | SI CC50/EC50 (DENV-2) [1]: >9.0; SI CC50/EC50 (WNV) [2]: >2.6; EC50 [4]: 11.1 ± 1.6 µM; EC50 [5]: 39 ± 1 µM
4 | Cc1ccc(NCc2cn(-c3ccccc3)nc2-c2ccc(C(F)(F)F)cc2)cc1 [1o] | 88 ± 0.5 | – | – | – | – | – | – | – | – | – | – | – | – | – | SI CC50/EC50 (DENV-2) [1]: 6.2; SI CC50/EC50 (WNV) [2]: 1.5; EC50 [4]: 14.3 ± 0.7 µM; EC50 [5]: 59 ± 1.1 µM
5 | O=c1cnn([C@@H]2O[C@H](CO)[C@@H](O)[C@H]2O)c(=O)[nH]1 [6-Azauridine, reference compound] | > 100 | 7.2 | 9.3 ± 1.6 | 46 ± 1.5 | 1.3 ± 0.3 | – | – | – | – | – | – | – | – | – | Effect on YFV titer, compound added post infection [6]: lost its effectiveness when added after the infection; Effect on YFV titer, compound present in pre-treatment or during infection [6]: reduced the YFV titer when present in the pre-treatment or during the 2 h of infection
6 | O=S(=O)(c1ccccc1)n1cc(CNc2ccc(Cl)cc2)c(-c2ccccc2)n1 [7b, 4-Chloro-N-[(3-phenyl-1-(phenylsulphonyl)-1H-pyrazol-4-yl)methyl]aniline] | > 100 | – | – | 8.1 ± 1.3 | – | 20 ± 5 | > 80 | > 80 | > 80 | > 80 | 136 to 137 | >12.3 | > 100 | > 100 | –
7 | O=S(=O)(c1ccccc1)n1cc(CNc2ccc(Br)cc2)c(-c2ccccc2)n1 [7c, 4-Bromo-N-[(3-phenyl-1-(phenylsulfonyl)-1H-pyrazol-4-yl)methyl]aniline] | > 100 | – | – | 5.9 ± 0.2 | > 3 | 24 ± 11 | > 85 | > 85 | > 85 | > 85 | 122 | >16.9 | > 100 | 20 | EC50 [19]: > 20 µM
8 | O=S(=O)(c1ccccc1)n1cc(CNc2ccccc2)c(-c2ccc(Br)cc2)n1 [7e, N-[(3-(4-Bromophenyl)-1-(phenylsulfonyl)-1H-pyrazol-4-yl)methyl]aniline] | > 100 | 4.9 | 87 ± 1 | 3.6 ± 0.8 | 17.8 ± 1.8 | > 87 | > 87 | > 87 | > 87 | > 87 | 110 to 111 | >27.8 | > 100 | > 100 | Effect on YFV titer, compound added post infection [6]: achieved the highest reduction of virus titer when added 2 h post infection and maintained up to 4 h post infection; also recorded: retained its inhibitory activity when added at any time p.i; also recorded: highest reduction of virus yield was observed when 7e was added 2 h post infection and maintained up to 4 h post infection; Effect on YFV titer, compound present in pre-treatment or during infection [6]: reduced the YFV titer when present in the pre-treatment or during the 2 h of infection; SI CC50/EC50 (BVDV) [20]: >5.1; EC50 [21]: 19.5 ± 2.1 µM; EC50 [19]: 20 ± 2.4 µM
9 | O=S(=O)(c1ccccc1)n1cc(CNc2ccc(Cl)cc2)c(-c2ccc(Br)cc2)n1 [7f, 4-Chloro-N-[(3-(4-bromophenyl)-1-(phenysulfonyl)-1H-pyrazol-4-yl)methyl]aniline] | > 100 | 5.9 | 90 ± 2 | 4 ± 0.7 | 15.3 ± 2.5 | > 90 | > 90 | > 90 | > 90 | > 90 | 137 to 138 | >25.0 | > 100 | > 100 | –
10 | O=S(=O)(c1ccccc1)n1cc(CNc2ccc(Br)cc2)c(-c2ccc(Br)cc2)n1 [7g, 4-Bromo-N-[(3-(4-bromophenyl)-1-(phenylsulfonyl)-1H-pyrazol-4-yl)methyl]aniline] | > 100 | 5.7 | 90 ± 1 | 6.2 ± 0.5 | 15.8 ± 2 | > 90 | > 90 | > 90 | > 90 | > 90 | 150 to 151 | >16.1 | > 100 | > 100 | –
11 | Cc1ccc(NCc2cn(S(=O)(=O)c3ccccc3)nc2-c2ccc(Br)cc2)cc1 [7h, 4-Methyl-N-[(3-(4-bromophenyl)-1-(phenylsulfonyl)-1H-pyrazol-4-yl)methyl]aniline] | > 100 | 7.4 | 93 ± 0.5 | 4.9 ± 0.9 | 12.5 ± 2.5 | > 93 | > 93 | > 93 | > 93 | > 93 | 112 | >20.4 | > 100 | > 100 | –
12 | O=S(=O)(c1ccccc1)n1cc(CNc2ccc(Cl)cc2)c(-c2ccc(Cl)cc2)n1 [7j, 4-Cloro-N-[(3-(4-chlorophenyl)-1-(phenylsulfonyl)-1H-pyrazol-4-yl)methyl]aniline] | > 100 | >11.8 | > 100 | 4.4 ± 0.4 | 8.5 ± 0.5 | – | – | – | – | – | 142 to 143 | >22.7 | > 100 | > 100 | SI CC50/EC50 (BVDV) [20]: >2.3; EC50 [21]: 43.3 ± 1.1 µM
13 | COc1ccc(S(=O)(=O)n2cc(CNc3ccc(Br)cc3)c(-c3ccc(Cl)cc3)n2)cc1 [8g, 4-Bromo-N-[(3-(4-chlorophenyl)-1-((4-methoxyphenyl)sulfonyl)-1H-pyrazol-4-yl)methyl]aniline] | > 100 | – | > 100 | 18.6 ± 0.8 | – | – | – | – | – | – | 169 to 171 | >5.4 | > 100 | > 100 | SI CC50/EC50 (BVDV) [20]: >8.1; EC50 [21]: 12.4 ± 0.8 µM
14 | Nc1nc2c(ncn2COCCO)c(=O)[nH]1 [ACG, Acyclovir, reference compound] | – | – | > 100 | – | – | – | – | – | 2.9 ± 0.1 | – | – | – | – | – | –
15 | COc1c(C)c2c(c(O)c1C/C=C(\C)CCC(=O)O)C(=O)OC2 [M 5255, Mycophenolic acid, reference compound] | – | – | 20 ± 0.3 | – | – | – | – | 2 ± 0.1 | – | – | – | – | – | – | –
16 | C[C@@]1(O)[C@H](O)[C@@H](CO)O[C@H]1n1ccc(N)nc1=O [NM107, 2′-C-methylcitidine] | – | – | – | – | – | – | – | – | – | – | – | – | – | – | EC50 [22]: 7.5 ± 1.5 µM; CC50 [23]: > 100 µM
17 | C[C@@]1(O)[C@H](O)[C@@H](CO)O[C@H]1n1cnc2c(=O)[nH]c(N)nc21 [NM 108, 2′-C-methylguanosin, reference compound] | 60 ± 3 | – | – | – | – | – | – | – | – | – | – | – | – | – | SI CC50/EC50 (DENV-2) [1]: 50.0; SI CC50/EC50 (WNV) [2]: 85.7; EC50 [4]: 1.2 ± 0.1 µM; EC50 [5]: 0.7 ± 0.2 µM
18 | Cc1cc(CCCOc2c(C)cc(-c3noc(C(F)(F)F)n3)cc2C)on1 [Pleconaril, reference compound] | – | – | 70 ± 1 | – | – | 0.0025 ± 0.0005 | 2 ± 0.1 | – | – | – | – | – | – | – | –
19 | NC(=O)c1ncn([C@@H]2O[C@H](CO)[C@@H](O)[C@H]2O)n1 [Ribavirin, reference compound] | – | >2.7 | > 100 | – | 37.5 ± 2.5 | – | – | – | – | – | – | – | 55 ± 7 | – | SI CC50/EC50 (BVDV) [20]: 3.4; EC50 [21]: 16 ± 2 µM
